From paper PMC9814590, “Precise heteroatom doping determines aqueous solubility and self-assembly behaviors for polycyclic aromatic skeletons” (Communications Chemistry, 2022)
Values after ≈ are worked out from the molar mass of the structure shown. Like-named read-outs stand apart in the source and are kept apart here.

Assays:
Water-contact angle test = type: physicochemical
Source text: (§1) With the 12 combinatorial molecules in hand, we initially examined their hydrophilicity and aqueous solubility. The water-contact angle test gave a clear hydrophilic assessment for these molecules (Table 1 and Supplementary Table 1). The conventional shake-flask method was employed to obtain the thermodynamic aqueous solubility data[29]. […]. In pursuit of both improving the hydrophilicity and aqueous solubility, we planned to introduce dual N/O heteroatoms to C1 skeleton as listed in group 2. […]. The turning point comes to C9 that doping two N atoms on the phenanthrene subcomponent besides the oxazole part. A water contact angle of 0° indicates the high hydrophilicity of C9. […].
Supplementary Table 1. Collected water contact angles for C2 – C12 […]

[1] = Shake-flask thermodynamic aqueous solubility (1H NMR quantification); type: physicochemical; details: for solubility at 24 h: water, thermodynamic from solid, D2O, room temperature
Source text: as §1
1.3 Determination of solubility-related parameters
(1) Measurement of aqueous solubility
We applied the classic shake-flask method to determine the solubility data of C2–C12 in water. Typically, an excess amount of C2 was added to 1.0 mL of D2O, and the mixture was stirred at room temperature for 24 h. After that, the phase separation of saturated solution was finished through centrifugation. 1H NMR technology was applied to quantitatively analysis the concentration of solute using tetrahydrofuran as internal standard. Actually, we didn’t synthesize C1 to obtain its solubility data from experimental method because it’s obvious that this compound would be insoluble in water from reasonable judgement. Alternatively, due to its high hydrophobicity and measured water solubility data from C2–C8 counterpart, we can estimate this value must be at least lower than 0.1 mg / mL as well. […]

[2] = Hansen solubility parameters (HSP) from rated solvent library, optimized in HSPiP; Ra and RED versus water; type: physicochemical; details: for Water2 Ra: distance to water HSP of dense condition (18.1, 17.1, 16.9); for Water1 Ra: distance to water HSP of dilute condition (15.1, 20.4, 16.5); for δD (dispersion solubility parameter) / δH (hydrogen bonding solubility parameter) / δP (polar solubility parameter) / R0 (intrinsic distance parameter): experimentally rated solvent library, HSPiP; for R0 (intrinsic distance parameter): unit assumed; for Water1 RED (Ra/R0): water HSP of dilute condition (15.1, 20.4, 16.5); for Water2 RED (Ra/R0): water HSP of dense condition (18.1, 17.1, 16.9)
Source text: To figure out why the doped N/O heteroatoms on the aromatic skeletons can both influence their hydrophilicity and aqueous solubility, we employed the Hansen solubility parameters (HSP) to interpret this phenomenon. This method developed by Charles Hansen et al.[30] has found broad use both in academia and industry for predicting the compatibility or affinity between two substances[31]–[34]. The key elements of HSP approach are three partial solubility parameters consisting of δD, δP, and δH, in which δD represents the dispersion solubility parameter, δP represents the polar solubility parameter, and δH represents the hydrogen bonding solubility parameter, respectively.
The three partial parameters define a three-dimensional coordinate for substances in a virtual solubility space (Hanse space). In principle, the closer the two coordinates of HSP are, the more likely the substances will dissolve in each other, which is consistent with the notion of “like dissolves like” rule. To better describe the degree of closeness, another solubility parameter “distance” (Ra) is introduced as follows:1 Ra2=4(δD2−δD1)^2+(δP2−δP1)^2+(δH2−δH1)^2 […]
Meanwhile, each substance has an intrinsic distance parameter R0, together with HSP as a center point that would define a solubility sphere in Hansen space. If the HSP coordinate of one substance is located inside the sphere of another substance, it indicates a high affinity between them. For solute and solvent cases, a dissolution process may happen. Otherwise, a low affinity is inferred if one substance is excluded from the sphere of another.
The total HSP data set of C1-C12 was experimentally tested and optimized from a combination of solvents library and listed in Table 1 (Supplementary Methods 1.3, Supplementary Fig. 1). […] For the unique H2O, there are three sets of HSP for different conditions. The first is the HSP of single-molecule (pure) water (15.5, 16.0, 42.3), in which the δH is more salient than δD and δP, it well explains the strong hydrogen bonding interactions between water molecules. However, its use in the prediction of solubility in water is not deemed appropriate in most cases. The second and third sets of HSP for water are those derived from solubility data and should be chosen case by case. The second set of HSP (15.1, 20.4, 16.5) was derived from experimental data set exceeding 1% soluble compounds in water, which may be appropriate for the diluted solute case (denoted as Water1). The third set of HSP (18.1, 17.1, 16.9) was derived from experimental data set of complete miscible compounds with water, which may be appropriate for the dense solute case (denoted as Water2).
1.3 Determination of solubility-related parameters […]
(2) Determination of Hansen solubility parameters (HSP)3
A collection of solvents was used to estimate the HSPs values of C2–C12, which includes dichloromethane, chloroform, toluene, diethyl ether, hexane, dioxane, pyridine, tetrahydrofuran, dimethyl sulfoxide, N, N-dimethyl formamide, acetone, acetonitrile, methanol and ethanol. If the specific solvent (0.5 mL) can dissolve at least 1.0 mg of certain solute would be rated as good solvent, otherwise as bad solvent. For C1, it’s expected that this molecule can only dissolve in nonpolar solvents (recrystallized from CCl4 according to literature report). We […]
methanol, ethanol and water would be bad solvents. These rated solvent s datasets for C1–C12 were imported to HSPiP software that developed by Dr. Hansen, Abbott and Hiroshi to optimize and obtain three partial HSPs values.

[3] = Apparent association constants by 1H NMR shift analysis (dimeric model); type: physicochemical; details: for Ka (CHCl3), apparent association constant: CHCl3, dimeric model; for Ka (MeOH-H2O), apparent association constant: MeOH-H2O (legend: H2O), dimeric model
Source text: As is known, high concentration as a driving force to promote the molecular aggregation in solution is ubiquitous and well recognized[37],[38]. To compare the high concentration induced aggregation phenomenon with our case, we measured their apparent association constants (Ka) by ^1H NMR shift analysis after simplifying the aggregates to a dimeric model[39] (Supplementary Figs. 17–28). As listed in Fig. 3b, C10-C12 in chloroform display relatively weak association ability induced by high concentration factor. […] Meanwhile, the ^13C NMR spectra gave more informative details about C10-C12 in different existing states (Fig. 3c, Supplementary Figs. 13 and 14). […] In comparison, these signals became broadened and moved to upfield with a maximal 3.19 ppm shift in D2O conditions, which was almost in consistent with the solid-state ^13C magic-angle spinning (MAS) NMR spectrum despite its much broader signature. Moreover, the luminescent emissions of C10-C12 in various solvent ratios and solid-state were also screened (Fig. 3d, Supplementary Figs. 33 and 34). […] Unexpectedly, the maximal emissions in water are close to the solid state of C10-C12 (e.g., 472 nm in water versus 486 nm in solid for C10), indicative of a homologous excited-state energy transfer pathway.

[4] = parameters: method as in hazardous substances data bank; details: 25 °C; ref hazardous substances data bank; cited from earlier work
[5] = Kinetic radii from DOSY NMR (Stokes-Einstein equation); type: physicochemical
[6] = AFM measurement of nanoparticles in wet conditions; type: physicochemical; details: aqueous solution 1.5 mM on mica
Description: To further confirm the aggregation-induced nanoparticles formed in water, we carried out atomic force microscope (AFM) measurement of C10-C12 in wet conditions[35] (Fig. 2c and Supplementary Figs. 29–31). Typically, a drop of aqueous solution of C11 (1.5 mM) was cast on a freshly cleaved mica surface and subjected to test. […] 2D and 3D height profiles gave a particle size around 8 nm.

SMILES	Water contact angle (Water-contact angle test; C2-C12) [°]	solubility at 24 h [1] [µg/mL]	Water2 Ra [2] [MPa^0.5]	Water1 Ra [2] [MPa^0.5]	δD (dispersion solubility parameter) [2]	δH (hydrogen bonding solubility parameter) [2]	δP (polar solubility parameter) [2]	R0 (intrinsic distance parameter) [2] [MPa^0.5]	Water1 RED (Ra/R0) [2]	Ka (CHCl3), apparent association constant [3]	Ka (MeOH-H2O), apparent association constant [3]	kinetic radius, DOSY ([5]; D2O) [nm]	kinetic radius, DOSY ([5]; MeOD-d4) [nm]	average diameter of nanoparticles (AFM statistical analysis) [6] [nm]	Water2 RED (Ra/R0) [2]	Aqueous solubility [1]	Aqueous solubility [4]	Water contact angle (Water-contact angle test; C1 not synthesized, deduced and estimated by comparison with C2) [°]
c1ccc(-c2nc3c4ccccc4c4ccccc4c3[nH]2)cc1 [C2]	140.6	< 100	9.9	13.3	18.5 (MPa)^0.5	8.1 (MPa)^0.5	12.6 (MPa)^0.5	4.5	–	–	–	–	–	–	–	–	–	–
c1ccc(-c2nc3c4ccccc4c4ccccc4c3o2)cc1 [C7]	135.2	< 100	13.9	18.2	19.5 (MPa)^0.5	7.5 (MPa)^0.5	7.2 (MPa)^0.5	6.6	2.8	–	–	–	–	–	–	barely soluble in water	–	–
c1cnccn1 [pyrazine]	–	–	–	–	–	–	–	–	–	–	–	–	–	–	–	–	freely soluble in water	–
c1cnc2c(c1)c1nc(-c3ccncc3)oc1c1cccnc12 [C10]	0	40000 (≈ 134 mM)	10.8	15	17.7 (MPa)^0.5	15.8 (MPa)^0.5	6.3 (MPa)^0.5	10.7	1.4	8(2) M^-1	772(47) M^-1	–	–	–	–	–	–	–
c1ccc(-c2nc3c4ccccc4c4ccccc4c3o2)nc1 [C8]	128.6	< 100	13.8	18.1	19.4 (MPa)^0.5	7.8 (MPa)^0.5	7.0 (MPa)^0.5	8.8	2.1	–	–	–	–	–	1.6	barely soluble in water	–	–
C1=C(c2ccccc2)Cc2c1c1ccccc1c1ccccc21 [C1, 2-phenyl-1H-cyclophen[l]phenanthrene, reference compound]	–	–	20.8	23.8	–	–	–	–	–	–	–	–	–	–	–	–	–	>140

Now from value to molecule, other results behind:

Water contact angle (Water-contact angle test; C2-C12) [°]	solubility at 24 h [1] [µg/mL]	Water2 Ra [2] [MPa^0.5]	Water1 Ra [2] [MPa^0.5]	δD (dispersion solubility parameter) [2]	δH (hydrogen bonding solubility parameter) [2]	δP (polar solubility parameter) [2]	R0 (intrinsic distance parameter) [2] [MPa^0.5]	Water1 RED (Ra/R0) [2]	Ka (CHCl3), apparent association constant [3]	Ka (MeOH-H2O), apparent association constant [3]	kinetic radius, DOSY ([5]; D2O) [nm]	kinetic radius, DOSY ([5]; MeOD-d4) [nm]	average diameter of nanoparticles (AFM statistical analysis) [6] [nm]	SMILES	Water2 RED (Ra/R0) [2]	Aqueous solubility [1]	Aqueous solubility [4]	Water contact angle (Water-contact angle test; C1 not synthesized, deduced and estimated by comparison with C2) [°]
0	< 100	5.9	7.9	16.1 (MPa)^0.5	16.8 (MPa)^0.5	12.8 (MPa)^0.5	7.9	–	–	–	–	–	–	c1ccc(-c2nc3c4cccnc4c4ncccc4c3[nH]2)nc1 [C6]	–	–	–	–
0	150000 (≈ 503 mM)	10.9	16.4	19.4 (MPa)^0.5	17.2 (MPa)^0.5	6.5 (MPa)^0.5	12.3	1.3	13(1) M^-1	918(77) M^-1	–	–	–	c1ccc(-c2nc3c4cccnc4c4ncccc4c3o2)nc1 [C12]	–	–	–	–
0	< 100	3.8	5.5	16.4 (MPa)^0.5	16.1 (MPa)^0.5	15.6 (MPa)^0.5	7.5	–	–	–	–	–	–	c1cnc2c(c1)c1nc(-c3ccncc3)[nH]c1c1cccnc12 [C4]	–	–	–	–
0	< 100	10.5	14.1	17.9 (MPa)^0.5	10.1 (MPa)^0.5	9.1 (MPa)^0.5	5.4	–	–	–	–	–	–	c1ccc(-c2nc3c4cccnc4c4ncccc4c3[nH]2)cc1 [C3]	1.9	–	–	–
0	< 100	3.7	5.3	16.4 (MPa)^0.5	16.5 (MPa)^0.5	15.8 (MPa)^0.5	7	–	–	–	–	–	–	c1cncc(-c2nc3c4cccnc4c4ncccc4c3[nH]2)c1 [C5]	–	–	–	–
0	900 (≈ 3.03 mM)	5.1	10.8	18.6 (MPa)^0.5	15.5 (MPa)^0.5	12.3 (MPa)^0.5	10	1.1	–	–	–	–	–	c1ccc(-c2nc3c4cccnc4c4ncccc4c3o2)cc1 [C9]	–	slightly soluble	–	–
0	13000 (≈ 43.6 mM)	10.2	14.9	18.3 (MPa)^0.5	15.9 (MPa)^0.5	7.0 (MPa)^0.5	11	1.4	6(1) M^-1	850(50) M^-1	3.98	0.65	8.32	c1cncc(-c2nc3c4cccnc4c4ncccc4c3o2)c1 [C11]	–	–	–	–
